Test results as given in patent publication US8959984B2, “Proteome-wide quantification of small molecule binding to cellular target proteins” (priority 2007, dated 2015).

Tests used:
Assay in all cases: binding to VI16742 beads (HeLa lysate, SILAC MS)
[1] = target: T1, GLO1 (IPI00220766) (Homo sapiens, UniProt Q04760)
T1 construct: endogenous in cells; host or cells: HeLa S3
T1 sequence (Q04760 2-184 limits assumed): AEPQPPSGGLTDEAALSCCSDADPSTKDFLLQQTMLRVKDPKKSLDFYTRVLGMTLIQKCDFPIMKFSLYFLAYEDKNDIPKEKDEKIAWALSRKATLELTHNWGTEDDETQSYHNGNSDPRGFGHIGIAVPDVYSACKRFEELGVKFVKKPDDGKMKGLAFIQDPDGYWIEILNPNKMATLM
Outline: (§1)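 Kinases were captured on a resin carrying the broadly selective pyrido[2,3-d]pyrimidine-based kinase inhibitor. Proteins specifically retained by the inhibitor resin were scored as binders.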

[2] = target: T2, ACLY (IPI00021290) (Homo sapiens, UniProt P53396)
T2 construct: endogenous in cells; host or cells: HeLa S3
T2 sequence (P53396 1-1101): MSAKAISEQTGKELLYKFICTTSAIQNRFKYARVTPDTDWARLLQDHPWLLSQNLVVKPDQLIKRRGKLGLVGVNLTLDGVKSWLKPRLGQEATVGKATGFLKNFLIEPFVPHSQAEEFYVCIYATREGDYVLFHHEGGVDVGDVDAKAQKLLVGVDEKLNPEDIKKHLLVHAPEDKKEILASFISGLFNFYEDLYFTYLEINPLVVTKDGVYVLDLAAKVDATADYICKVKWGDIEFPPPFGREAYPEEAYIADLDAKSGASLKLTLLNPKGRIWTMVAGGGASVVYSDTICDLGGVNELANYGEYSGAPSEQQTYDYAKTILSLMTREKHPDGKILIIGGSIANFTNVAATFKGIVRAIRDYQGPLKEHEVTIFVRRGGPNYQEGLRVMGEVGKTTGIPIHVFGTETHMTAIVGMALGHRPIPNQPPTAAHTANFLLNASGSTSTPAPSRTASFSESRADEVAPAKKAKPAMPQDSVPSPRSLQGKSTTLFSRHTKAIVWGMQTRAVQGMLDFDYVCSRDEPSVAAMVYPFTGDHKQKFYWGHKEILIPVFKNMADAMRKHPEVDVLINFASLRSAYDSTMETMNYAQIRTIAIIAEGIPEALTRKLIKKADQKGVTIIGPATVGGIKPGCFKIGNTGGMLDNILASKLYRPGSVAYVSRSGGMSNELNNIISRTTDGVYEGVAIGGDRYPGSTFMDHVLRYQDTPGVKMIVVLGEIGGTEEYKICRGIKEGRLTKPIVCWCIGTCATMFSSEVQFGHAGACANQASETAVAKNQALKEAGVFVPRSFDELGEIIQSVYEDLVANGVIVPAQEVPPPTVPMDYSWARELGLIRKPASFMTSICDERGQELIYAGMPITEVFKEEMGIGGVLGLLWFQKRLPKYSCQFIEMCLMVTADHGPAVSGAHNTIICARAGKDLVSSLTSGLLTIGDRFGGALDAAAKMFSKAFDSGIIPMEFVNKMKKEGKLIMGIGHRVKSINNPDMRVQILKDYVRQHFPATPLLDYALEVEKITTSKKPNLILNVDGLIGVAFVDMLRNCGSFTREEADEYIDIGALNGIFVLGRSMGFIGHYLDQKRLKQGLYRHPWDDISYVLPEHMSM
Outline: as §1

[3] = target: T3, PDE4D (IPI00002449) (Homo sapiens, UniProt Q08499)
T3 construct: endogenous in cells; host or cells: HeLa S3 cell lysate
T3 sequence (Q08499 whole entry): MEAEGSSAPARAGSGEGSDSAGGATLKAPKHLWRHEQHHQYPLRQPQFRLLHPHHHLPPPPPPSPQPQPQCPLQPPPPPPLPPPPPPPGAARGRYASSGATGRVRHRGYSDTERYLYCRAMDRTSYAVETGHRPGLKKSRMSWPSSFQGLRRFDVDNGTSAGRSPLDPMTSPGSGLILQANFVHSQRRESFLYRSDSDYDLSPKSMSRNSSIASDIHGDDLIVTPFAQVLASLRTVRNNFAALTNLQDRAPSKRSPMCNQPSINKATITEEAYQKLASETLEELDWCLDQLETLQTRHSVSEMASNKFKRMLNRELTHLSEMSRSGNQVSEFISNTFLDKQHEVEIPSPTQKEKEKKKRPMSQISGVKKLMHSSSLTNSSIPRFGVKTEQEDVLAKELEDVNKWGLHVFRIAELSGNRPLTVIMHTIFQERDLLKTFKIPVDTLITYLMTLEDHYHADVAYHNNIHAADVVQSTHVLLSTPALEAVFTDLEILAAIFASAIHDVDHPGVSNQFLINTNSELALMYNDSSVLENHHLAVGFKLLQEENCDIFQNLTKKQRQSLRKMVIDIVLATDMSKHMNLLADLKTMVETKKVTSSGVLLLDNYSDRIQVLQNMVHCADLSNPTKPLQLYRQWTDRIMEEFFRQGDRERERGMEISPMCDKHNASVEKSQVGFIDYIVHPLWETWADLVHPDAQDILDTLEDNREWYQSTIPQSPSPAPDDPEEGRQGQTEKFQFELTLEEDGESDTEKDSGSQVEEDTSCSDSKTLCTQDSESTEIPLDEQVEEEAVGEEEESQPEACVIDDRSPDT
Outline: as §1

[4] = target: T4, CRK7 (CRKRS, IPI00868781) (Homo sapiens, UniProt Q9NYV4)
T4 construct: endogenous in cells; host or cells: HeLa S3 cell lysate
T4 sequence (Q9NYV4 whole entry): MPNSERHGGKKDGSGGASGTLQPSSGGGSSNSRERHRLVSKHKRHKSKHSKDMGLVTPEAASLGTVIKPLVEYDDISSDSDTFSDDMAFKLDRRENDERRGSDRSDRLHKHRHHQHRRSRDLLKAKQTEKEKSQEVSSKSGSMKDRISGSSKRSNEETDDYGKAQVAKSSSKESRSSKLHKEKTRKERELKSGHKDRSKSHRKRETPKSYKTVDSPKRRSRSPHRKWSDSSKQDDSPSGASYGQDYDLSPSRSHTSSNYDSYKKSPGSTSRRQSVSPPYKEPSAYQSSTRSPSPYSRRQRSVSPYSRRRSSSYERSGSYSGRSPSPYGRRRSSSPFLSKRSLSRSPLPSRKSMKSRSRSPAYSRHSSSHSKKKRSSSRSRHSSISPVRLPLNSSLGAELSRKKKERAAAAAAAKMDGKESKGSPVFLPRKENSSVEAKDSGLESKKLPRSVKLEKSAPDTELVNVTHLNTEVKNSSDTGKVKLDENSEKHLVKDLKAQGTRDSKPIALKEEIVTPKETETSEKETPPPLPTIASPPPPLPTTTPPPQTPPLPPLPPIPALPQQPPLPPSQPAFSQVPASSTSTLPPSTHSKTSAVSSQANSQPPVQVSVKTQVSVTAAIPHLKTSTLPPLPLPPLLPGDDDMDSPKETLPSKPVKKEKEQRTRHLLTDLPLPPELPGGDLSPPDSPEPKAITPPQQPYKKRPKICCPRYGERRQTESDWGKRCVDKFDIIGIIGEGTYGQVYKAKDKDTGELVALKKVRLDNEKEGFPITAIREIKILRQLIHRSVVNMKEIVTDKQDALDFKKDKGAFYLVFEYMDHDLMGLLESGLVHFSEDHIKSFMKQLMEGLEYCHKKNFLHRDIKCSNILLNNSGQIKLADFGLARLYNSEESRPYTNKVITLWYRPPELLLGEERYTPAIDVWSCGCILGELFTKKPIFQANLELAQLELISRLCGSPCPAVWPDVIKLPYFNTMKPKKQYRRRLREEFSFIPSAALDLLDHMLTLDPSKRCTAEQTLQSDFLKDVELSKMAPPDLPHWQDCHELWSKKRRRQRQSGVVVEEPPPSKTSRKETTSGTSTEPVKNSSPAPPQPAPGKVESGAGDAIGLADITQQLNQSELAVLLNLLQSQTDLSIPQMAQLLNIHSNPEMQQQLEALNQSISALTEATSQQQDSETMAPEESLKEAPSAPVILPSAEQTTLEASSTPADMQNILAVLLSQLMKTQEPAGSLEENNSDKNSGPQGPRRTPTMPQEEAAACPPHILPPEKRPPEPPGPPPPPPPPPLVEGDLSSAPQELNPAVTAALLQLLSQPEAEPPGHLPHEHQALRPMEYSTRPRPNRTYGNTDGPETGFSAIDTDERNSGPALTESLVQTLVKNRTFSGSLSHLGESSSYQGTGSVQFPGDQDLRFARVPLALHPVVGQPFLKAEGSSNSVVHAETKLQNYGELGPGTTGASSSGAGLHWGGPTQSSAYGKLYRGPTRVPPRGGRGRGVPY
Outline: as §1

[5] = target: T5, MAP2K6 (IPI00003814) (Homo sapiens, UniProt P52564)
T5 construct: endogenous in cells; host or cells: HeLa S3
T5 sequence (P52564 1-334): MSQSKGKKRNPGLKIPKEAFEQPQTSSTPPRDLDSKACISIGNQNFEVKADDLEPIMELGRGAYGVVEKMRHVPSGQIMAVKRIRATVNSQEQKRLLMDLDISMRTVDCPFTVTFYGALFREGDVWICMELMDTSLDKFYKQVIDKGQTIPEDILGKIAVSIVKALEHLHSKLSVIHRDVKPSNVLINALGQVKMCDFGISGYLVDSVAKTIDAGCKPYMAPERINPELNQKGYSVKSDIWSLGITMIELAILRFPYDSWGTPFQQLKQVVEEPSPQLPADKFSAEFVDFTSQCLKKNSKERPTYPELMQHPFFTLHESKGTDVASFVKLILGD
Outline: as §1

[6] = control beads vs first incubation

## CC(C)n1c(=O)ccc2cnc(Nc3ccc(OCCN)cc3)nc21 [V16742]
[1]; 5 h vs 2.5 h incubation time
  r (5 h/2.5 h INC. TIME): 1.39
[1]; [6]
  rAVERAGE (CTRL/1 INC): 0.07
[1]; immobilized VI16742
  Ki: 133 µM
[1]; second vs first incubation
  rAVERAGE (2 INC/1 INC): 0.72
[2]; 3 mg vs 1 mg lysate
  r (3 MG/1 MG LYSATE): 3.59
[2]; 5 h vs 2.5 h incubation time
  r (5 h/2.5 h INC. TIME): 1.98
[2]; [6]
  rAVERAGE (CTRL/1 INC): 0.06
[2]; immobilized VI16742
  Ki: 162 µM
[2]; second vs first incubation
  rAVERAGE (2 INC/1 INC): 0.76
[3]; 3 mg vs 1 mg lysate
  r (3 MG/1 MG LYSATE): 2.48
[3]; 5 h vs 2.5 h incubation time
  r (5 h/2.5 h INC. TIME): 1.09
[3]; [6]
  rAVERAGE (CTRL/1 INC): 0.05
[3]; immobilized VI16742
  Ki: 102 µM
[3]; second vs first incubation
  rAVERAGE (2 INC/1 INC): 0.66
[4]; 3 mg vs 1 mg lysate
  r (3 MG/1 MG LYSATE): 3.21
[4]; 5 h vs 2.5 h incubation time
  r (5 h/2.5 h INC. TIME): 1.04
[4]; [6]
  rAVERAGE (CTRL/1 INC): 0.07
[4]; immobilized VI16742
  Ki: 90.7 µM
[4]; second vs first incubation
  rAVERAGE (2 INC/1 INC): 0.64
[5]; 3 mg vs 1 mg lysate
  r (3 MG/1 MG LYSATE): 2.41
[5]; 5 h vs 2.5 h incubation time
  r (5 h/2.5 h INC. TIME): 1.36
[5]; [6]
  rAVERAGE (CTRL/1 INC): 0.05
[5]; immobilized VI16742
  Ki: 178 µM
[5]; second vs first incubation
  rAVERAGE (2 INC/1 INC): 0.77
